Source: patent US7893088B2, “6-substituted isoquinoline derivatives” (N.V. Organon, priority 2006, dated 2011)

Target: recombinant human ROCK-I (Homo sapiens, UniProt Q13464)
Test: biochemical
Details: IMAP fluorescence polarisation, dose response curve, read-out: plC50 (the source's name)
Procedure: Following a one hour incubation at room temperature in the dark, enzyme activity is detected by adding 60 μl of IMAP binding reagent (Molecular Devices) to each well.

Chain of recombinant human ROCK-I (Q13464 whole entry): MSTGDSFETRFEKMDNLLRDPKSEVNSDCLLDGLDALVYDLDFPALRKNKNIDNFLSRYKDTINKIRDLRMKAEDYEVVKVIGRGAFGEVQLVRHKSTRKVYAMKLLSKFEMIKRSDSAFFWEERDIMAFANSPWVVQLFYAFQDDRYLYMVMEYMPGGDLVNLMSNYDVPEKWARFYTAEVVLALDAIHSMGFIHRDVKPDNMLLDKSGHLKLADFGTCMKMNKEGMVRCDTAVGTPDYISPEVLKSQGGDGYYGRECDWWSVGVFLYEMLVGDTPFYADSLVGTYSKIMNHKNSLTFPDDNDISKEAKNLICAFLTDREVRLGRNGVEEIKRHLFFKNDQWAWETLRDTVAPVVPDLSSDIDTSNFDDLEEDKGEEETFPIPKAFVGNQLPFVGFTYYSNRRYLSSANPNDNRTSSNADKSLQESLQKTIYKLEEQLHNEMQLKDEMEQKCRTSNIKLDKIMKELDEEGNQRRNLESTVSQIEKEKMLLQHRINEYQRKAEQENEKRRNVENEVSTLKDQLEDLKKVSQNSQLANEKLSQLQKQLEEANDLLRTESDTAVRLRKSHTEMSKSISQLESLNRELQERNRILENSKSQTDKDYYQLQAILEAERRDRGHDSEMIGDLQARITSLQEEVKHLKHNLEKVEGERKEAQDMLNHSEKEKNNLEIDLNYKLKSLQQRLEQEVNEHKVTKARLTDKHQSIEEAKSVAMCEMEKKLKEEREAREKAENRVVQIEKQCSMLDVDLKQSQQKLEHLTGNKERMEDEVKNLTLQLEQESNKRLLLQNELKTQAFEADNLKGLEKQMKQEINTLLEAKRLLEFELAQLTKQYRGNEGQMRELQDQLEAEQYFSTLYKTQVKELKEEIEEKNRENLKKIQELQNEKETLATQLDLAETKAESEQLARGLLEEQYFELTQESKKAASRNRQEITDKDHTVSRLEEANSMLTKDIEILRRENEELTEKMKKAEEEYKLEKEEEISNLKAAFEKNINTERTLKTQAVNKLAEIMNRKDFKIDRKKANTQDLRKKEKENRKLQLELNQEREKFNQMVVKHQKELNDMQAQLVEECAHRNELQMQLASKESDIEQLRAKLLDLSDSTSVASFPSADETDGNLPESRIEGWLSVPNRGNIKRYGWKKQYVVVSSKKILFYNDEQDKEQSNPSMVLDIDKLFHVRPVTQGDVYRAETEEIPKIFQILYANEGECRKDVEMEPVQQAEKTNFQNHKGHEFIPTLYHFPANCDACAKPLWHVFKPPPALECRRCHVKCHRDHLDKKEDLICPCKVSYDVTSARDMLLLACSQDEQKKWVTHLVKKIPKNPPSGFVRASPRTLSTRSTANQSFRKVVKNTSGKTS

**Q.** With `Nc1nccc2cc(S[C@H]3CC[C@@H](N)CC3)ccc12` [Example 4, Cis-6-(4-aminocyclohexylsulfanyl)isoquinolin-1-ylamine] as the compound, how does the IC50 read?
**A.** The IC50 was < 0.316 µM.
